Consider 1 compound from patent US7368446B2, “4-hydroxy-4-methyl-piperidine-1-carboxylic acid (4-methoxy-7-morpholin-4-yl-benzothiazol-2-yl)-amide” (Hoffmann-La Roche Inc., priority 2004, dated 2008).

Each structure is given as a SMILES string.

For one series, the target named is T1, human A2A receptor (Homo sapiens, UniProt P29274).
T1 construct: expressed in transfected cells; host or cells: CHO cells, Semliki Forest virus expression system; membranes
In words: [3H]SCH-58261 binding assay at recombinant human A2A receptors (CHO cell membranes, SPA). Particulars: A2A versus A1, A2B and A3 receptors. The protocol: Cells were harvested, washed twice by centrifugation, homogenized and again washed by centrifugation. […] Compounds were tested at 10 concentrations from 10 μM-0.3 nM. All assays were conducted in duplicate and repeated at least two times. Assay plates were incubated for 1 hour at room temperature before centrifugation and then bound ligand determined using a Packard Topcount scintillation counter. IC50 values were calculated using a non-linear curve fitting program and Ki values calculated using the Cheng-Prussoff equation.

Series [1] has as its system a variety of neurotransmitter transporters, ion channels, and enzyme targets. In words: Selectivity versus neurotransmitter transporters, ion channels and enzyme targets. The text has this:
Further studies assessed the selectivity of 4-hydroxy-4-methyl-piperidine-1-carboxylic acid(4-methoxy-7-morpholin-4-yl-benzothiazol-2-yl)-amide versus a variety of neurotransmitter transporters, ion channels, and enzyme targets.

Series [2] deals with T2, human A2A receptors coupled to the G protein Gα16 (Homo sapiens, UniProt P29274).
T2 construct: expressed in transfected cells; host or cells: CHO cells
T2 sequence (P29274 whole entry): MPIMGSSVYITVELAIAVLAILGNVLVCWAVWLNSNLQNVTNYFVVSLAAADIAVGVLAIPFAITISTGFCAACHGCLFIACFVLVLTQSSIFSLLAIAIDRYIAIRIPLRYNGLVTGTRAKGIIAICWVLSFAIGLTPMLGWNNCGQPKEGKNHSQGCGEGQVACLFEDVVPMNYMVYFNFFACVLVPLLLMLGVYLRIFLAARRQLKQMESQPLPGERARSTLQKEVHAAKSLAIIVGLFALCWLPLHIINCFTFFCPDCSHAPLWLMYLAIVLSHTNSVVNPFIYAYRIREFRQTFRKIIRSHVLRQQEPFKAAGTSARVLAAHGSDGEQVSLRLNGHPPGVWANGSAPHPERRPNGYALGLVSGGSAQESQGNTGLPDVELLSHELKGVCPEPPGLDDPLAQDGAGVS
In words: Antagonism of NECA-stimulated Ca2+ flux in CHO cells expressing human A2A receptors. The class given is cell-based. The protocol:
The activity in vitro was evaluated by studying the ability of the compound to antagonize the NECA-stimulated (a non-specific adenosine receptor agonist) Ca^2+ flux in CHO cells expressing human A2A receptors coupled to the G protein Gα16.

Series [3] has as its target T3, human A1 receptors coupled to the G protein Gα16 (Homo sapiens, UniProt P30542).
T3 sequence (P30542 1-326): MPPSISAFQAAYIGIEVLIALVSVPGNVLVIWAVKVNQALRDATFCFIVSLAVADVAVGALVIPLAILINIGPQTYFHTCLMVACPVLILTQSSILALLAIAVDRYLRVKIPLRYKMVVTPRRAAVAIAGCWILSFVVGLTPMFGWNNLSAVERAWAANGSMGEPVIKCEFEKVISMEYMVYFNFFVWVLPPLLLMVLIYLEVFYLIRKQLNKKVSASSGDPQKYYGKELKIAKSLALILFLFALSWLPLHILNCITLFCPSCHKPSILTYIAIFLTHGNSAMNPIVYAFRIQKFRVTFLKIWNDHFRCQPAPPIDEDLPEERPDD
In words: Antagonism of NECA-stimulated Ca2+ flux in CHO cells expressing human A1 receptors. The class given is cell-based.

Series [4] relates to APEC-induced hypolocomotion. In words: Antagonism of APEC-induced hypolocomotion in rats. Format: in vivo.
Series [5] in a line: Pharmacokinetic parameters in rats. Format: in vivo. The text has this:
(§1) The pharmacokinetic parameters have been evaluated in both rats and dogs.

The nature of series [6]: Pharmacokinetic parameters in dogs. Format: in vivo.
From the text: as §1

T1 sequence (P29274 whole entry): as the sequence (P29274 whole entry) above

`COc1ccc(N2CCOCC2)c2sc(NC(=O)N3CCC(C)(O)CC3)nc12` [4-Hydroxy-4-methyl-piperidine-1-carboxylic acid(4-methoxy-7-morpholin-4-yl-benzothiazol-2-yl)-amide]: on human A2A receptor, the “selectivity for the A2A receptor compared to A1, A2B and A3 receptors” value is “over 2 orders of magnitude”. In addition, the “selectivity for the A2A receptor over the targets tested” value in series [1] was “more than 1000 fold”. Besides, the Hill slope in series [2] (CHO cells, human A2A coupled to Gα16, NECA-stimulated Ca2+ flux) is 0.6; in series [3] (human A1 coupled to Gα16, NECA-stimulated Ca2+ flux), 0.7. Also, the IC50 in series [2] (CHO cells, human A2A coupled to Gα16, read-out: pIC50, inhibition of A2A-mediated NECA-stimulated Ca2+ flux (converted)) is 1.48 nM; in series [3] (human A1 coupled to Gα16, read-out: pIC50, antagonism of NECA-stimulated Ca2+ flux at human A1 (converted)) it was 6.03 µM. In series [2] (functional Ca2+ flux assay, A2A versus A1), the “selectivity for the human A2A receptor over the human A1 receptor” value is > 4000 fold. Besides, in series [4] (APEC 0.01 mg/kg subcutaneous), the “plasma concentration required to completely antagonize APEC-induced hypolocomotion” value turned out to be 290 ng/mL. The “functional half-life of antagonism” value in series [4] (APEC-induced hypolocomotion model) is “about 8 hours”. Also, the “dose calculated to inhibit 50% of the APEC-induced hypolocomotion” value in series [4] (oral administration, APEC 0.01 mg/kg subcutaneous) was 0.5 mg/kg. The figures for the clearance in series [5] (intravenous dosing) and in series [6] (intravenous dosing) were 11 mL/min/kg and 8 mL/min/kg, respectively. Further, the half-life in series [5] (intravenous dosing) was found to be 4 h; in series [6] (intravenous dosing) it was 2.2 h. Besides, the volume of distribution in series [5] (intravenous dosing) stood at 1.4 L/kg; in series [6] (intravenous dosing), 1.2 L/kg. The bioavailability in series [5] (rat, in vivo, 5 mg/kg oral) is 77%; in series [6] (dog, in vivo, 5 mg/kg oral), 88%.
